# Laboratory results: patent publication US11214540B2, “Compositions for treating neurodegenerative diseases” (COGNITION THERAPEUTICS, INC., priority 2017, dated 2022)
# Read-outs that look alike come from different tables or passages of the source.
# Tests used:
# [1] = target: Sigma-1 receptors on Jurkat cell membranes (Homo sapiens (Human), UniProt Q99720); assay: Competitive Radioligand Binding Assay 1, Sigma-1 binding ([3H](+)pentazocine displacement); details: sigma-1 receptor affinity; read-out: S1 Ki
# Sequence of Sigma-1 receptors on Jurkat cell membranes (Q99720 whole entry): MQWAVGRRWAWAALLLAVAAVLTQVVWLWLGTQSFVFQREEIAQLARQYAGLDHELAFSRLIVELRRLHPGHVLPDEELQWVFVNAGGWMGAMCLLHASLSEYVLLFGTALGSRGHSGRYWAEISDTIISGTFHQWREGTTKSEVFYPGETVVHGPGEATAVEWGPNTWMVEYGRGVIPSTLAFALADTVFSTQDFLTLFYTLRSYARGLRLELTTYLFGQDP
# Description: Certain compounds were tested for interaction with several receptors by blocking the binding or action of their agonists or antagonists. Some compounds were tested to see whether they interact directly with known cellular receptor or signaling proteins. Compounds can be tested for the ability to displace binding of known agonists or antagonists of a given human receptor that was overexpressed in cell lines or isolated from tissue. Compounds can also be tested for the ability to block downstream signaling induced by agonists or antagonists of a given human receptor. Compounds can be tested for action at 100 known receptors, and it is desirable that specific activity will occur at only a small subset of CNS-relevant receptors.
# For Sigma-1 binding, various concentrations of test compounds from 100 μM to 1 nM were used to displace 8 nM [3H](+)pentazocine from endogenous receptors on Jurkat cell membranes (Ganapathy M E et al. 1991, J Pharmacol. Exp. Ther. 289:251-260). 10 μM Haloperidol was used to define non-specific binding. […] (Bowen W D, et al. 1993, Mol. Neuropharmcol 3:117-126). 10 μM Haloperidol was used to define non-specific binding. Reactions were terminated by rapid filtration through Whatman GF/C filters using a Brandel 12R cell harvester followed by two washes with ice-cold buffer. Radioactivity on the dried filter discs was measured using a liquid scintillation analyzer (Tri-Carb 2900TR; PerkinElmer Life and Analytical Sciences). The displacement curves were plotted and the Ki values of the test compounds for the receptor subtypes were determined using GraphPad Prism (GraphPad Software Inc., San Diego, Calif.). The percentage specific binding was determined by dividing the difference between total bound (disintegrations per minute) and nonspecific bound (disintegrations per minute) by the total bound (disintegrations per minute). […]
# [2] = target: Sigma-2 receptors on membranes from rat cerebral cortex (Rattus norvegicus (Rat), UniProt Q5U3Y7); assay: Competitive Radioligand Binding Assay 1, Sigma-2 binding ([3H]DTG displacement with (+)pentazocine mask); details: sigma-2 receptor affinity; read-out: S2 Ki
# Sequence of Sigma-2 receptors on membranes from rat cerebral cortex (Q5U3Y7 whole entry): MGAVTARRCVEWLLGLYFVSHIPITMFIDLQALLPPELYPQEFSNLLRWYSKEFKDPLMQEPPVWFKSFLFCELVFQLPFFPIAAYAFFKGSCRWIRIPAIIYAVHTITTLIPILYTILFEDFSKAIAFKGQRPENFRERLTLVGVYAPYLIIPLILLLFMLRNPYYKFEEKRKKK
# In short: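 Displacement of [3H]DTG by test compounds from rat cerebral cortex membranes in presence of 300 nM (+)pentazocine masking sigma-1 sites; 10 μM haloperidol defines non-specific binding. Filtration and scintillation counting; Ki from displacement curves.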
# [3] = system: Abeta oligomer-induced membrane trafficking deficits in primary hippocampal neurons; assay: Membrane Trafficking/Exocytosis (MTT) assay, Abeta oligomer effect on neurons; assay type: cell-based, rat; details: membrane trafficking, read-out: EC50 Abeta;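 note: compound potency for inhibiting the Abeta oligomer effect on exocytosis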
# In short: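 Rat E18 hippocampal neurons cultured 3 weeks received compound (100 uM to 0.001 nM), then vehicle or Abeta 1-42 oligomers (3 μM total Abeta), for 1-24 h at 37 °C. MTT was added for 1 h, and formazan vesicle exocytosis was quantified by automated imaging with DAPI toxicity check. Tukey-Kramer comparisons were made with N=4.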
# [4] = Mouse liver microsome (MLM) stability; assay type: in vitro ADME; details: microsomal stability in mouse liver microsomes (MLM)
# Description: A first pharmacokinetic study was performed in microsomes of mice mouse liver microsomes, MLM).
# Microsomal stability experiments and plasma stability experiments were performed to determine metabolic and hepatic stability of candidate compounds.
# [5] = target: potassium channel hERG (Homo sapiens (Human), UniProt Q12809); assay: In vitro testing for hERG inhibition; assay type: biochemical; details: in vitro toxicity potassium channel hERG
# Sequence of potassium channel hERG (Q12809 whole entry): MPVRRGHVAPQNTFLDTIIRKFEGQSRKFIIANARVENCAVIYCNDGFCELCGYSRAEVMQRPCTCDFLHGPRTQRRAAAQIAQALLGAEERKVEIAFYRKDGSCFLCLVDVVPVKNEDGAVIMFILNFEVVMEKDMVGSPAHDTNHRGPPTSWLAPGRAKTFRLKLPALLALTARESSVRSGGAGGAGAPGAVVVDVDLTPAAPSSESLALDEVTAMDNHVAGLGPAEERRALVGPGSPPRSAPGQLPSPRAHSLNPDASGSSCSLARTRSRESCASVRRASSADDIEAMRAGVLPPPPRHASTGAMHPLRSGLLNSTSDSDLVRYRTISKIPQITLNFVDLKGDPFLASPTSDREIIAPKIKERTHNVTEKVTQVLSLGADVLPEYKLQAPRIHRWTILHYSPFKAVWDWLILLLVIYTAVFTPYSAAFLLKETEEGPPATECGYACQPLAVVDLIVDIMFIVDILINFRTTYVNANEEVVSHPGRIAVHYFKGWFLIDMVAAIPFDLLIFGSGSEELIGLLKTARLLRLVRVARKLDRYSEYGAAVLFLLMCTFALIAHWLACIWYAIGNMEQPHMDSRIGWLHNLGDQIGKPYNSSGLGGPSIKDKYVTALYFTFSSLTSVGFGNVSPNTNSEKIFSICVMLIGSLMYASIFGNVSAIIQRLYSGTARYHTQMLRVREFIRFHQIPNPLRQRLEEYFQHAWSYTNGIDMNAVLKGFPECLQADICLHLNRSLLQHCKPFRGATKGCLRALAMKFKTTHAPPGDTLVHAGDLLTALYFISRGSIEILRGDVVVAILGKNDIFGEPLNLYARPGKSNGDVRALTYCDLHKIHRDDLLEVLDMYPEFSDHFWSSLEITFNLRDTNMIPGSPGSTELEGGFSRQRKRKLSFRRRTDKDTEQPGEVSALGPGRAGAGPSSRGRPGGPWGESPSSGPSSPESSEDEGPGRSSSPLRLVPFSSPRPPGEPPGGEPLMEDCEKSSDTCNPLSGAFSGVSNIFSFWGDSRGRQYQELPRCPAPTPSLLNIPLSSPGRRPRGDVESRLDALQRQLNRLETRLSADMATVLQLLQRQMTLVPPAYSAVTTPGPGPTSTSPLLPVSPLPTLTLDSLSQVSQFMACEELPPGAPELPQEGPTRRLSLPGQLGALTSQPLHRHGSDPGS
# Description: In vitro testing for hERG inhibition was performed in a standard assay (See: Haverkamp W, Breithardt G, Carnm A J, Janse M J, Rosen M R, Antzelevitch C, Escande D, Franz M, Malik M, Moss A and Shah R. (2000) Eur Heat J 21 (15); 1216-31).
# [6] = log P; assay type: physicochemical
# In short: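 Ratio of un-ionized compound concentrations between octanol and water, with aqueous pH set so the un-ionized form predominates. Value given as the log of the octanol/water ratio.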
compound,measurement,setting,value
COCCCC1CCN(C(C=C(C)C)CC(C)(C)c2ccc(Cl)cc2)CC1 (stereo not drawn) [Compound 23],Ki,[1],140 nM
same,Ki,[2],9.2 nM
same,EC50,[3],950 nM
same,MLM T1/2,[4],8.2 min
same,IC50,[5],2200 nM
same,log P,[6],6.49
CC(C)=CC(CC(C)(C)c1ccc(C(F)(F)F)cc1)N1CCC(CCO)CC1 (stereo not drawn) [Compound 28],Ki,[1],6.1 nM
same,Ki,[2],18 nM
same,EC50,[3],4000 nM
same,MLM T1/2,[4],60 min
same,IC50,[5],10200 nM
same,log P,[6],5.68
CC(C)=CC(CC(C)(C)c1ccc(Cl)cc1)N1CCC(C)(C)CC1 (stereo not drawn) [Compound 31],Ki,[1],41 nM
same,Ki,[2],28 nM
same,EC50,[3],700 nM
same,MLM T1/2,[4],21 min
same,IC50,[5],10900 nM
same,log P,[6],6.7
CC(C)=CC(CC(C)(C)c1ccc(C(F)(F)F)cc1)N1CCC(CO)CC1 (stereo not drawn) [Compound 35],Ki,[1],56 nM
same,Ki,[2],39 nM
same,EC50,[3],20000 nM
same,MLM T1/2,[4],60 min
same,IC50,[5],13400 nM
same,log P,[6],5.31
CC(C)=CC(CC(C)(C)c1ccc(F)cc1)N1CCC2(CCOCC2)CC1 (stereo not drawn) [Compound 36],Ki,[1],12 nM
same,Ki,[2],40 nM
same,EC50,[3],20000 nM
same,MLM T1/2,[4],25 min
same,IC50,[5],10000 nM
same,log P,[6],5.41
CC(C)=CC(CC(C)(C)c1ccc(C(F)(F)F)cc1)N1CCC(O)CC1 (stereo not drawn) [Compound 38],Ki,[1],190 nM
same,Ki,[2],42 nM
same,EC50,[3],4500 nM
same,MLM T1/2,[4],84 min
same,IC50,[5],16200 nM
same,log P,[6],4.85
CC(C)=CC(CC(C)(C)c1ccc(Cl)cc1)N1CCC2(CCOCC2)CC1 (stereo not drawn) [Compound 41],Ki,[1],16 nM
same,Ki,[2],67 nM
same,EC50,[3],1600 nM
same,MLM T1/2,[4],35 min
same,IC50,[5],4000 nM
same,log P,[6],5.87
CC(C)=CC(CC(C)(C)c1ccc(Cl)cc1)N1CCC(C2CCN(C)CC2)CC1 (stereo not drawn) [Compound 43],Ki,[1],61 nM
same,Ki,[2],74 nM
same,EC50,[3],300 nM
same,MLM T1/2,[4],29 min
same,IC50,[5],4900 nM
same,log P,[6],6.37
CC(C)=CC(CC(C)(C)c1ccc(Cl)cc1)N1CCC(CCO)CC1 (stereo not drawn) [Compound 53],Ki,[1],74 nM
same,Ki,[2],110 nM
same,EC50,[3],20000 nM
same,MLM T1/2,[4],28 min
same,IC50,[5],13300 nM
same,log P,[6],5.41
CC(C)=CC(CC(C)(C)c1ccc(Cl)cc1)N1CCC(F)CC1 (stereo not drawn) [Compound 55],Ki,[1],25 nM
same,Ki,[2],120 nM
same,EC50,[3],2500 nM
same,MLM T1/2,[4],3.6 min
same,IC50,[5],7200 nM
same,log P,[6],5.47
CC(C)=CC(CC(C)(C)c1ccc(F)cc1)N1CCC(CCO)CC1 (stereo not drawn) [Compound 58],Ki,[1],64 nM
same,Ki,[2],160 nM
same,EC50,[3],500 nM
same,MLM T1/2,[4],39 min
same,IC50,[5],14000 nM
same,log P,[6],4.94
CC(C)=CC(CC(C)(C)c1ccc(C(F)(F)F)cc1)N1CCCCC1 (stereo not drawn) [Compound 61],Ki,[1],160 nM
same,Ki,[2],230 nM
same,EC50,[3],4700 nM
same,MLM T1/2,[4],53 min
same,IC50,[5],7300 nM
same,log P,[6],6.38
CC(C)=CC(CC(C)(C)c1ccc(F)cc1)N1CCC(C)(O)CC1 (stereo not drawn) [Compound 62],Ki,[1],130 nM
same,Ki,[2],230 nM
same,EC50,[3],800 nM
same,MLM T1/2,[4],60 min
same,IC50,[5],41000 nM
same,log P,[6],4.4
CC(C)=CC(CC(C)(C)c1ccc(F)cc1)N1CCCCC1 (stereo not drawn) [Compound 68],Ki,[1],500 nM
same,Ki,[2],300 nM
same,EC50,[3],20000 nM
same,MLM T1/2,[4],11 min
same,IC50,[5],27000 nM
same,log P,[6],5.65
CC(C)=CC(CC(C)(C)c1ccc(C(F)(F)F)cc1)N1CCC(C(F)(F)F)CC1 (stereo not drawn) [Compound 70],Ki,[1],33 nM
same,Ki,[2],340 nM
same,EC50,[3],20000 nM
same,MLM T1/2,[4],14 min
same,IC50,[5],16300 nM
same,log P,[6],6.95
CC(C)=CC(CC(C)(C)c1ccc(C(F)(F)F)cc1)N1CCOCC1 (stereo not drawn) [Compound 72],Ki,[1],770 nM
same,Ki,[2],400 nM
same,EC50,[3],20000 nM
same,MLM T1/2,[4],2.1 min
same,IC50,[5],80000 nM
same,log P,[6],5.32
CC(C)=CC(CC(C)(C)c1ccc(Cl)cc1)N1CCC(C)(O)CC1 (stereo not drawn) [Compound 73],Ki,[1],29 nM
same,Ki,[2],410 nM
same,EC50,[3],700 nM
same,MLM T1/2,[4],87 min
same,IC50,[5],24000 nM
same,log P,[6],4.86
CC(C)=CC(CC(C)(C)c1ccc(Cl)cc1)N1CCC(O)CC1 (stereo not drawn) [Compound 77],Ki,[1],540 nM
same,Ki,[2],800 nM
same,EC50,[3],20000 nM
same,MLM T1/2,[4],44 min
same,IC50,[5],15200 nM
same,log P,[6],4.58
CC(C)=CC(CC(C)(C)c1ccc(F)cc1)N1CCC(O)CC1 (stereo not drawn) [Compound 79],Ki,[1],1200 nM
same,Ki,[2],940 nM
same,EC50,[3],1900 nM
same,MLM T1/2,[4],74 min
same,IC50,[5],29000 nM
same,log P,[6],4.12
CC(C)=CC(CC(C)(C)c1ccc(S(C)(=O)=O)cc1)N1CCC2(CCOCC2)CC1 (stereo not drawn) [Compound 82],Ki,[1],380 nM
same,Ki,[2],2800 nM
same,EC50,[3],20000 nM
same,MLM T1/2,[4],60 min
same,IC50,[5],100000 nM
same,log P,[6],4.11
CC(C)=CC(CC(C)(C)c1ccc(C(F)(F)F)cc1)N1CCC(C2CCOCC2)CC1 (stereo not drawn) [Example 9],Ki,[1],13 nM
same,Ki,[2],1.8 nM
same,EC50,"[3]; Rattus norvegicus, Hippocampal neuron",500 nM
same,half-life,[4]; read-out: MLM T1/2,114 min
same,IC50,[5],1000 nM
same,logP,[6]; octanol/water,6.58
